Measurements: US20230094952A1, “Method for Culturing Hematopoietic Stem Cells” (Sumitomo Pharma Co., Ltd., priority 2019, published 2023)

Tested on: mouse long-term hematopoietic stem cells
Assay: Reproducibility and concentration dependence test: 1-week culture of sorted Hoxb5-tri-mCherry mouse long-term hematopoietic stem cells, flow cytometry
Format: cell-based
Conditions: Table 4, day 7 of culture, n=2
Protocol: Mice with insertion of a nucleic acid sequence containing three copies of a gene encoding the fluorescent protein mCherry to the C terminus of the mouse endogenous HoxB5 gene (Hoxb5-tri-mCherry) were used (triple-mCherry Hoxb5 knock-in mice; Non Patent Literature 1). The mice were housed under environmental conditions such that the room temperature and the humidity were 20 to 26° C. and 40 to 70%, respectively, under light for 12 hours and under dark for 12 hours (illumination: 8:00 a.m. to 8:00 p.m.).
Bone marrow cells were collected from the tibia, femur, humerus, and pelvis in each side of each of the mice, and gathered in a mortar. A buffer obtained by adding thermally deactivated bovine serum (manufactured by Gibco) at a final concentration of 2% and EDTA at a final concentration of 2 mM to Ca^2+-free and Mg^2+-free PBS was added, and the resultant was broken with a pestle to obtain a cell population including hematopoietic stem cells.
First, the thus-obtained cell population including hematopoietic stem cells was passed through strainers (meshes) of 100 μm, 70 μm, and 40 μm. The cell population was stained with an APC-binding anti-c-Kit (2B8) and fractionated with anti-APC magnetic beads and an LS column (both manufactured by Miltenyi Biotec) to obtain a cell population enriched with hematopoietic stem cells and progenitor cells.
Subsequently, cells being c-Kit-positive were stained with antibodies for the following cell surface markers.
Staining with the antibodies was performed at 4° C., and the cells were incubated for 30 minutes. For staining with the CD34 antibody, the cells were incubated for 90 minutes. Dead cell staining was performed with SYTOX Red Dead Cell Stain (manufactured by Life Technologies) in accordance with a method recommended by the manufacturer.
Flow cytometry analysis and cell classification (cell sorting) were performed with a FACS Aria II cell sorter (manufactured by BD Biosciences), wherein Lineage-negative, c-Kit-positive, Sca-1-positive, Flk2-negative, CD34-negative or weakly CD34-positive, CD150-positive, and mCherry-positive fractions were regarded as long-term hematopoietic stem cells, and analysis was performed with the software FlowJo (manufactured by Tree Star, Inc.).
The cells after classification were seeded in a 96-well plate. A cell culture medium was prepared by adding Stem Cell Factor (SCF, manufactured by PeproTech, Inc.) and Thrombopoietin (TPO, manufactured by PeproTech, Inc.) to StemSpan SFEM culture medium (manufactured by […] Technologies Inc.) and added in advance to a cell culture 96-well plate (manufactured by BD Biosciences) at 100 μL/well, and the cells sorted with the FACS Aria II cell sorter (BD Biosciences) were then seeded at 10 cells/well.
[…] Thereafter, the cells were cultured in a CO2 incubator under conditions of 37° C. and 5% CO2 for 1 week.
After culture, the cells were stained with the antibodies for the surface markers c-Kit and Sca-1, Ter-119, B220, CD3, CD4, CD8a, Gr-1, and CD11b, and the ratio and post-growth cell count of a KLS fraction (c-Kit^+, Lin^−, Sca-1^+) or an mCherry-positive fraction given with use of a FACS Aria II cell sorter were analyzed by using FlowJo (BD Biosciences). The mCherry-positive fraction is a cell fraction expressing the Hoxb5 gene, and the KLS fraction is a cell fraction being c-Kit-positive, Lin-negative, and Sca-1-positive, and includes hematopoietic stem cells and multipotent progenitor cells as main components. […]

SMILES	KLS-positive rate (compound 0.1 μM) [%]	Viable cell count (compound 0.1 μM) [cell]	mCherry-positive rate (compound 0.1 μM) [%]	KLS-positive rate (compound 0.3 μM) [%]	Viable cell count (compound 0.3 μM) [cell]	mCherry-positive rate (compound 0.3 μM) [%]	KLS-positive rate (compound 1 μM) [%]	Viable cell count (compound 1 μM) [cell]	mCherry-positive rate (compound 1 μM) [%]	KLS-positive rate (compound 3 μM) [%]	Viable cell count (compound 3 μM) [cell]	mCherry-positive rate (compound 3 μM) [%]	KLS-positive rate (compound 10 μM) [%]	Viable cell count (compound 10 μM) [cell]	mCherry-positive rate (compound 10 μM) [%]
C[C@H]1[C@@H](C(N)=O)O[C@@H]2O[C@@]3(C)CC[C@H]4[C@H](C)CC[C@@H]1[C@@]24OO3 [Example 1-15, (3R,5aS,6R,8aS,9R,10S,12R,12aR)-3,6,9-Trimethyldecahydro-12H-3,12-epoxypyrano[4,3-j][1,2]benzodioxepine-10-carboxamide]	6.8	379.0	7.1	13.0	540.0	13.3	17.9	258.0	47.3	40.0	111.0	87.1	54.9	42.5	97.6
C[C@H]1[C@@H](CN)O[C@@H]2O[C@@]3(C)CC[C@H]4[C@H](C)CC[C@@H]1[C@@]24OO3 [Example 1-17, 1-[(3R,5aS,6R,8aS,9R,10S,12R,12aR)-3,6,9-Trimethyldecahydro-12H-3,12-epoxypyrano[4,3-j][1,2]benzodioxepin-10-yl]methanamine]	15.9	947.0	4.9	16.1	902.0	2.5	19.4	641.5	16.1	24.0	315.0	70.1	51.8	80.0	100.0
CS[C@@H]1O[C@@H]2O[C@@]3(C)CC[C@H]4[C@H](C)CC[C@@H]([C@H]1C)[C@@]24OO3 [Example 1-3, (3R,5aS,6R,8aS,9R,10S,12S,12aR)-3,6,9-Trimethyl-10-(methylsulfanyl)decahydro-12H-3,12-epoxypyrano[4,3-j][1,2]benzodioxepine]	15.8	445.0	8.0	18.6	324.0	4.7	20.3	299.5	38.6	24.2	139.0	97.0	83.4	3.5	100.0
CC(C)O[C@H]1O[C@@H]2O[C@@]3(C)CC[C@H]4[C@H](C)CC[C@@H]([C@H]1C)[C@@]24OO3 [Example 1-19, (3R,5aS,6R,8aS,9R,10S,12R,12aR)-3,6,9-Trimethyl-10-[(propan-2-yl)oxy]decahydro-12H-3,12-epoxypyrano[4,3-j][1,2]benzodioxepine]	9.5	469.0	56.3	41.7	151.0	96.2	4.2	6.0	50.0	0.0	0.0	0.0	0.0	0.5	50.0
C[C@H]1[C@H](N2CCOCC2)O[C@@H]2O[C@@]3(C)CC[C@H]4[C@H](C)CC[C@@H]1[C@@]24OO3 [Example 1-13, 4-[(3R,5aS,6R,8aS,9R,10R,12R,12aR)-3,6,9-Trimethyldecahydro-12H-3,12-epoxypyrano[4,3-j][1,2]benzodioxepin-10-yl]morpholine]	22.1	201.0	24.3	14.7	605.0	2.9	21.0	136.5	6.7	0.0	0.0	0.0	0.0	0.0	0.0
C[C@H]1[C@H](NS(C)(=O)=O)O[C@@H]2O[C@@]3(C)CC[C@H]4[C@H](C)CC[C@@H]1[C@@]24OO3 [Example 1-11, N-[(3R,5aS,6R,8aS,9R,10R,12R,12aR)-3,6,9-Trimethyldecahydro-12H-3,12-epoxypyrano[4,3-j][1,2]benzodioxepin-10-yl]methanesulfonamide]	13.2	452.5	14.3	17.6	267.0	29.2	26.0	196.0	60.4	32.4	31.0	86.2	100.0	1.5	100.0
C[C@H]1[C@H](S(C)(=O)=O)O[C@@H]2O[C@@]3(C)CC[C@H]4[C@H](C)CC[C@@H]1[C@@]24OO3 [Example 1-5, (3R,5aS,6R,8aS,9R,10S,12S,12aR)-10-(Methanesulfonyl)-3,6,9-trimethyldecahydro-12H-3,12-epoxypyrano[4,3-j][1,2]benzodioxepine]	18.2	443.5	11.5	41.7	221.5	8.5	20.0	308.0	4.5	30.8	184.0	41.5	0.0	1.5	0.0
